In ChEMBL document CHEMBL4229455, “Synthesis and anticancer activity of novel bisindolylhydroxymaleimide derivatives with potent GSK-3 kinase inhibition” (Bioorg Med Chem, 2018):

Tests used:
Assay type in all cases: functional
[1] = tested on: SNB-19; assay: Cytotoxicity against human SNB19 cells assessed as cell growth at 1 uM after 48 hrs by SRB assay relative to control; conditions: SNB-19, 48 h, read-out: Activity
[2] = tested on: OVCAR-5; assay: Cytotoxicity against human OVCAR5 cells after 48 hrs by SRB assay; conditions: OVCAR-5, 48 h
[3] = tested on: HCT-116; assay: Cytotoxicity against human HCT116 cells assessed as cell growth at 1 uM after 48 hrs by SRB assay relative to control; conditions: HCT-116, 48 h, read-out: Activity
[4] = tested on: SK-MEL-28; assay: Cytotoxicity against human SK-MEL-28 cells assessed as cell growth at 0.1 uM after 48 hrs by SRB assay relative to control; conditions: SK-MEL-28, 48 h, read-out: Activity
[5] = tested on: Malme-3M; assay: Cytotoxicity against human MALME-3M cells assessed as cell growth at 0.01 uM after 48 hrs by SRB assay relative to control; conditions: read-out: Activity
[6] = tested on: RXF 393; assay: Cytotoxicity against human RXF393 cells after 48 hrs by SRB assay; conditions: RXF 393, 48 h
[7] = tested on: MDA-MB-468; assay: Cytotoxicity against human MDA-MB-468 cells assessed as cell growth at 1 uM after 48 hrs by SRB assay relative to control; conditions: MDA-MB-468, 48 h, read-out: Activity
[8] = tested on: UACC-257; assay: Cytotoxicity against human UACC257 cells after 48 hrs by SRB assay; conditions: UACC-257, 48 h
[9] = tested on: A498; assay: Cytotoxicity against human A498 cells assessed as cell growth at 0.01 uM after 48 hrs by SRB assay relative to control; conditions: A498, 48 h, read-out: Activity
[10] = tested on: CAKI-1; assay: Cytotoxicity against human Caki1 cells assessed as cell growth at 1 uM after 48 hrs by SRB assay relative to control; conditions: CAKI-1, 48 h, read-out: Activity
[11] = tested on: MDA-MB-435; assay: Cytotoxicity against human MDA-MB-435 cells assessed as cell growth at 0.01 uM after 48 hrs by SRB assay relative to control; conditions: MDA-MB-435, 48 h, read-out: Activity
[12] = tested on: SK-MEL-28; assay: Cytotoxicity against human SK-MEL-28 cells assessed as cell growth at 1 uM after 48 hrs by SRB assay relative to control; conditions: SK-MEL-28, 48 h, read-out: Activity
[13] = tested on: RXF 393; assay: Cytotoxicity against human RXF393 cells assessed as cell growth at 100 uM after 48 hrs by SRB assay relative to control; conditions: RXF 393, 48 h, read-out: Activity
[14] = tested on: SK-MEL-2; assay: Cytotoxicity against human SK-MEL-2 cells assessed as cell growth at 0.1 uM after 48 hrs by SRB assay relative to control; conditions: SK-MEL-2, 48 h, read-out: Activity
[15] = tested on: MOLT-4; assay: Cytotoxicity against human MOLT4 cells assessed as cell growth at 1 uM after 48 hrs by SRB assay relative to control; conditions: MOLT-4, 48 h, read-out: Activity
[16] = tested on: A498; assay: Cytotoxicity against human A498 cells assessed as cell growth at 0.1 uM after 48 hrs by SRB assay relative to control; conditions: A498, 48 h, read-out: Activity
[17] = tested on: LOX IMVI; assay: Cytotoxicity against human LOXIMVI cells assessed as cell growth at 100 uM after 48 hrs by SRB assay relative to control; conditions: read-out: Activity
[18] = tested on: SF-295; assay: Cytotoxicity against human SF295 cells after 48 hrs by SRB assay; conditions: SF-295, 48 h; for CC50: read-out: LC50 (the source's name)
[19] = tested on: COLO 205; assay: Cytotoxicity against human COLO205 cells after 48 hrs by SRB assay; conditions: COLO 205, 48 h
[20] = tested on: A498; assay: Cytotoxicity against human A498 cells after 48 hrs by SRB assay; conditions: A498, 48 h
[21] = tested on: SF-295; assay: Cytotoxicity against human SF295 cells assessed as cell growth at 0.1 uM after 48 hrs by SRB assay relative to control; conditions: SF-295, 48 h, read-out: Activity
[22] = tested on: HL-60(TB); assay: Cytotoxicity against human HL-60(TB) cells assessed as cell growth at 0.01 uM after 48 hrs by SRB assay relative to control; conditions: HL-60, 48 h, read-out: Activity
[23] = tested on: MCF7; assay: Cytotoxicity against human MCF7 cells assessed as cell growth at 0.01 uM after 48 hrs by SRB assay relative to control; conditions: MCF7, 48 h, read-out: Activity
[24] = tested on: NCI-H226; assay: Cytotoxicity against human NCI-H226 cells after 48 hrs by SRB assay; conditions: NCI-H226, 48 h
[25] = tested on: M14; assay: Cytotoxicity against human M14 cells after 48 hrs by SRB assay; conditions: M14, 48 h
[26] = tested on: HOP-92; assay: Cytotoxicity against human HOP92 cells assessed as cell growth at 1 uM after 48 hrs by SRB assay relative to control; conditions: HOP-92, 48 h, read-out: Activity
[27] = tested on: OVCAR-3; assay: Cytotoxicity against human OVCAR3 cells assessed as cell growth at 0.01 uM after 48 hrs by SRB assay relative to control; conditions: OVCAR-3, 48 h, read-out: Activity
[28] = tested on: K562; assay: Cytotoxicity against human K562 cells assessed as cell growth at 0.1 uM after 48 hrs by SRB assay relative to control; conditions: K562, 48 h, read-out: Activity
[29] = tested on: Malme-3M; assay: Cytotoxicity against human MALME-3M cells assessed as cell growth at 1 uM after 48 hrs by SRB assay relative to control; conditions: read-out: Activity
[30] = tested on: HCT-116; assay: Cytotoxicity against human HCT116 cells assessed as cell growth at 100 uM after 48 hrs by SRB assay relative to control; conditions: HCT-116, 48 h, read-out: Activity
[31] = tested on: MDA-MB-468; assay: Cytotoxicity against human MDA-MB-468 cells assessed as cell growth at 100 uM after 48 hrs by SRB assay relative to control; conditions: MDA-MB-468, 48 h, read-out: Activity
[32] = tested on: UACC-257; assay: Cytotoxicity against human UACC257 cells assessed as cell growth at 0.01 uM after 48 hrs by SRB assay relative to control; conditions: UACC-257, 48 h, read-out: Activity
[33] = tested on: A549; assay: Cytotoxicity against human A549 cells assessed as cell growth at 0.01 uM after 48 hrs by SRB assay relative to control; conditions: A549, 48 h, read-out: Activity
[34] = tested on: OVCAR-8; assay: Cytotoxicity against human OVCAR8 cells assessed as cell growth at 100 uM after 48 hrs by SRB assay relative to control; conditions: OVCAR-8, 48 h, read-out: Activity
[35] = tested on: IGROV-1; assay: Cytotoxicity against human IGROV1 cells after 48 hrs by SRB assay; conditions: IGROV-1, 48 h
[36] = tested on: K562; assay: Cytotoxicity against human K562 cells assessed as cell growth at 100 uM after 48 hrs by SRB assay relative to control; conditions: K562, 48 h, read-out: Activity

In the case of `N#CCCCCCn1cc(C2=C(c3cn(CCCCCC#N)c4ccccc34)C(=O)N(O)C2=O)c2ccccc21`, the growth at 1 µM [1] is reported as 91%, the GI50 [2] is reported as 38.4 µM and the LC50 [2] is reported as over 100 µM. For the same compound, the TGI [2] was over 100 µM, the growth at 1 µM [3] was 98% and the growth at 0.1 µM [4] was 102%. It also gave a growth at 0.01 µM [5] of 100%, a GI50 [6] of 3.15 µM and an LC50 [6] of over 100 µM. For the same compound, the TGI [6] was 12.2 µM, the growth at 1 µM [7] was 106% and the GI50 [8] was 12.1 µM. The LC50 [8] was over 100 µM, the TGI [8] was 55.6 µM and the growth at 0.01 µM [9] was 84%. It also gave a growth at 1 µM [10] of 93%, a growth at 0.01 µM [11] of 95% and a growth at 1 µM [12] of 103%. For the same compound, the growth at 100 µM [13] was -25%, the growth at 0.1 µM [14] was 98% and the growth at 1 µM [15] was 85%. For the same compound, the growth at 0.1 µM [16] was 82%, the growth at 100 µM [17] was -9% and the GI50 [18] was 5.93 µM. The TGI [18] was 31.4 µM, the CC50 [18] was over 100 µM and the GI50 [19] was 17.7 µM. The LC50 [19] was over 100 µM, the TGI [19] was 58.7 µM and the GI50 [20] was 2.36 µM. For the same compound, the LC50 [20] was over 100 µM, the TGI [20] was 86 µM and the growth at 0.1 µM [21] was 91%. For the same compound, the growth at 0.01 µM [22] was 98%, the growth at 0.01 µM [23] was 91% and the GI50 [24] was 7.26 µM. For the same compound, the LC50 [24] was over 100 µM, the TGI [24] was 70.8 µM and the GI50 [25] was 4.42 µM. The LC50 (concentration killing 50% of cells) [25] was over 100 µM, the TGI [25] was 34 µM and the growth at 1 µM [26] was 109%. For the same compound, the growth at 0.01 µM [27] was 99%, the growth at 0.1 µM [28] was 91% and the growth at 1 µM [29] was 107%. For the same compound, the growth at 100 µM [30] was -15%, the growth at 100 µM [31] was -15% and the growth at 0.01 µM [32] was 97%. For the same compound, the growth at 0.01 µM [33] was 100%, the growth at 100 µM [34] was 3% and the GI50 [35] was 5.08 µM. The LC50 (concentration killing 50% of cells) [35] was over 100 µM, the TGI [35] was 70.8 µM and the growth at 100 µM [36] was 3%.
`Cn1cc(C2=C(c3cn(C)c4ncccc34)C(=O)NC2=O)c2ccccc21` showed a growth at 1 µM [1] of 91%, a GI50 [2] of 3.88 µM and a TGI [2] of 29.1 µM. It also gave a growth at 1 µM [3] of 86%, a growth at 0.1 µM [4] of 95% and a growth at 0.01 µM [5] of 109%. For the same compound, the GI50 [6] was 1.95 µM, the TGI [6] was 5.32 µM and the growth at 1 µM [7] was 78%. The GI50 [8] was 6.32 µM, the TGI [8] was 54.8 µM and the growth at 0.01 µM [9] was 76%. For the same compound, the growth at 1 µM [10] was 54%, the growth at 0.01 µM [11] was 98% and the growth at 1 µM [12] was 90%. For the same compound, the growth at 100 µM [13] was -49%, the growth at 0.1 µM [14] was 113% and the growth at 1 µM [15] was 101%. It also gave a growth at 0.1 µM [16] of 73%, a growth at 100 µM [17] of -18% and a GI50 [18] of 2.61 µM. It also gave a TGI [18] of 10.3 µM, a CC50 [18] of over 100 µM and a GI50 [19] of 1.69 µM. For the same compound, the TGI [19] was 3.71 µM, the GI50 [20] was 0.32 µM and the TGI [20] was 2.34 µM. It also gave a growth at 0.1 µM [21] of 93%, a growth at 0.01 µM [22] of 106% and a growth at 0.01 µM [23] of 93%. It also gave a GI50 [24] of 2.24 µM, a TGI [24] of 6.84 µM and a GI50 [25] of 3.84 µM. For the same compound, the TGI [25] was 12.5 µM, the growth at 1 µM [26] was 76% and the growth at 0.01 µM [27] was 107%. It also gave a growth at 0.1 µM [28] of 102%, a growth at 1 µM [29] of 110% and a growth at 100 µM [30] of -17%. It also gave a growth at 100 µM [31] of -56%, a growth at 0.01 µM [32] of 104% and a growth at 0.01 µM [33] of 99%. The growth at 100 µM [34] was -15%, the GI50 [35] was 4.1 µM and the TGI [35] was 27.5 µM. It also gave a growth at 100 µM [36] of 2%.
